# Source: ChEMBL document CHEMBL3272024, “(Acylaryloxy)acetic acid diuretics. 1. (2-Alkyl- and 2,2-dialkyl-1-oxo-5-indanyloxy)acetic acids” (J Med Chem, 1977)
# Legend:
# Pan troglodytes [1] = experiment: Ratio of change in urate excretion to change in inulin excretion in chimpanzee in urine at 5 mg/kg, po; format: functional
# Pan troglodytes [2] = experiment: Natriuretic activity in chimpanzee assessed as change sodium level in urine measured per min at 5 mg/kg, po; format: functional
# [3] = Acute toxicity in iv dosed mouse; format: organism-based; conditions: in vivo
# Canis familiaris [4] = experiment: Diuretic activity in dog assessed as sodium level in urine collected for 2 hrs at 5 mg/kg, iv over a period of 5 mins (reference value: 5 to 30 microEq); format: functional, Canis lupus familiaris
# Rattus norvegicus = experiment: Natriuretic activity in po dosed Charles River rat assessed as sodium level in urine per cage collected 0.5 hrs interval relative to 2-(3,6,7-trimethyl-1-oxo-2,3-dihydro-1H-inden-5-yloxy)acetic acid; format: functional
# Canis familiaris [5] = experiment: Diuretic activity in dog assessed as potassium level in urine collected for 2 hrs at 5 mg/kg, iv over a period of 5 mins (reference value: 5 to 30 microEq); format: functional, Canis lupus familiaris
# Canis familiaris [6] = experiment: Diuretic activity in dog assessed as chloride level in urine collected for 2 hrs at 5 mg/kg, iv over a period of 5 mins (reference value: 1 to 10 microEq); format: functional, Canis lupus familiaris
# Canis familiaris [7] = experiment: Diuretic activity in dog assessed as urine volume collected for 2 hrs at 5 mg/kg, iv over a period of 5 mins (reference value: 1 to 2 mL); format: functional, Canis lupus familiaris
# Canis familiaris [8] = experiment: Diuretic activity in dog assessed as potassium level in urine collected for 2 hrs at 1.5 mg/kg, iv over a period of 5 mins (reference value: 18 microEq); format: functional, Canis lupus familiaris
# Canis familiaris [9] = experiment: Diuretic activity in dog assessed as urine volume collected for 2 hrs at 1.5 mg/kg, iv over a period of 5 mins (reference value: 1 mL); format: functional, Canis lupus familiaris
# Canis familiaris [10] = experiment: Diuretic activity in dog assessed as chloride level in urine collected for 2 hrs at 1.5 mg/kg, iv over a period of 5 mins (reference value: 1 microEq); format: functional, Canis lupus familiaris
# Canis familiaris [11] = experiment: Diuretic activity in dog assessed as sodium level in urine collected for 2 hrs at 1.5 mg/kg, iv over a period of 5 mins (reference value: 29 microEq); format: functional, Canis lupus familiaris
SMILES,Ratio (Pan troglodytes [1]),Activity (Pan troglodytes [2]) [uEq],other results
"O=C(O)COc1cc2c(c(Cl)c1Cl)C(=O)C(C1CCCC1)C2 (single isomer, unassigned; (+))",,,Ratio (Pan troglodytes [1]; 5 mg/kg): 0.26; Activity (Pan troglodytes [2]; 5 mg/kg): 300 uEq
CC1c2cc(OCc3nnn[nH]3)c(Cl)c(Cl)c2C(=O)C1C1CCCC1 (stereo unspecified),0.07,19,
CC(C)C1(C)Cc2cc(OCC(=O)O)c(Cl)c(Cl)c2C1=O (racemic),,,Ratio (Pan troglodytes [1]; 5 mg/kg): 0.03; LD50 [3]: 244 mg/kg; Activity (Canis familiaris [4]): 185 uEq; Ratio (Rattus norvegicus): 53; Activity (Canis familiaris [5]): 35 uEq; Activity (Canis familiaris [6]): 218 uEq; Activity (Canis familiaris [7]): 2 mL; Activity (Pan troglodytes [2]; 5 mg/kg): 506 uEq
Cc1c(OCC(=O)O)cc2c(c1Cl)C(=O)C(C)(C1CCCC1)C2 (stereo unspecified),0.24,86,
O=C(O)COc1cc2c(c(Cl)c1Cl)C(=O)C1(CCCCC1)C2,0.05,489,
"CC1(C2CCCC2)Cc2cc(OCC(=O)O)c(Cl)c(Cl)c2C1=O (single isomer, unassigned; enantiomer 1)",,,Ratio (Pan troglodytes [1]; 5 mg/kg): 0.1; Activity (Pan troglodytes [2]; 5 mg/kg): 325 uEq
CC(C)C1Cc2cc(OCC(=O)O)c(Cl)c(Cl)c2C1=O (stereo unspecified),0.18,649,LD50 [3]: 505 mg/kg; Activity (Canis familiaris [4]): 281 uEq; Ratio (Rattus norvegicus): 3.2; Activity (Canis familiaris [5]): 44 uEq; Activity (Canis familiaris [6]): 330 uEq; Activity (Canis familiaris [7]): 4 mL
CC(C)C1Cc2cc(OCc3nnn[nH]3)c(Cl)c(Cl)c2C1=O (stereo unspecified),0.07,42,
Cc1c(OCC(=O)O)cc2c(c1C)C(=O)C(C1CCCC1)C2 (stereo unspecified),0.43,0,
"CC(C)C1(C)Cc2cc(OCC(=O)O)c(Cl)c(Cl)c2C1=O (single isomer, unassigned; (+))",,,Ratio (Pan troglodytes [1]; 5 mg/kg): 0.41; Activity (Pan troglodytes [2]; 5 mg/kg): 1593 uEq
"CC(C)C1(C)Cc2cc(OCC(=O)O)c(Cl)c(Cl)c2C1=O (single isomer, unassigned; enantiomer 2)",,,Ratio (Pan troglodytes [1]; 5 mg/kg): 0.06; Activity (Pan troglodytes [2]; 5 mg/kg): 992 uEq
Cc1c(OCC(=O)O)cc2c(c1Cl)C(=O)C(C(C)C)C2 (stereo unspecified),0.07,185,Activity (Canis familiaris [4]): 218 uEq; Activity (Canis familiaris [5]): 50 uEq; Activity (Canis familiaris [6]): 204 uEq; Activity (Canis familiaris [7]): 3 mL
NS(=O)(=O)c1cc2c(cc1Cl)NCNS2(=O)=O [HYDROCHLOROTHIAZIDE],,144,Activity (Canis familiaris [4]): 166 uEq; Activity (Canis familiaris [5]): 33 uEq; Activity (Canis familiaris [6]): 156 uEq; Activity (Canis familiaris [7]): 3 mL
CC(C)C1(C)Cc2cc(OCc3nnn[nH]3)c(Cl)c(Cl)c2C1=O (stereo unspecified),0.17,174,
CCC1C(=O)c2c(cc(OCc3nnn[nH]3)c(Cl)c2Cl)C1c1ccccc1 (stereo unspecified),0.06,5,
CC1Cc2cc(OCC(=O)O)c(Cl)c(Cl)c2C1=O (stereo unspecified),,,LD50 [3]: 354 mg/kg; Ratio (Rattus norvegicus): 1
O=C(O)COc1cc2c(c(Cl)c1Cl)C(=O)C(C1CCCC1)C2c1ccccc1 (stereo unspecified),0.25,22,
CC(C)(C)C1Cc2cc(OCC(=O)O)c(Cl)c(Cl)c2C1=O (stereo unspecified),0,106,
CC(C)C1C(=O)c2c(cc(OCC(=O)O)c(Cl)c2Cl)C1c1ccccc1 (stereo unspecified),0.25,240,
CC1(Cc2ccccc2)Cc2cc(OCC(=O)O)c(Cl)c(Cl)c2C1=O (stereo unspecified),0.18,251,
CCCC1(CC)Cc2cc(OCC(=O)O)c(Cl)c(Cl)c2C1=O (stereo unspecified),0.05,341,
CCCC1Cc2cc(OCC(=O)O)c(Cl)c(Cl)c2C1=O (stereo unspecified),0.19,,
Cc1c(OCC(=O)O)cc2c(c1C)C(=O)C(C(C)C)C2 (stereo unspecified),0.15,153,Activity (Canis familiaris [4]): 154 uEq; Activity (Canis familiaris [5]): 15 uEq; Activity (Canis familiaris [6]): 100 uEq; Activity (Canis familiaris [7]): 2 mL
CCC1(C)C(=O)c2c(cc(OCC(=O)O)c(Cl)c2Cl)C1c1ccccc1 (stereo unspecified),0,0,
"CC1(C2CCCC2)Cc2cc(OCC(=O)O)c(Cl)c(Cl)c2C1=O (single isomer, unassigned; enantiomer 2)",,,Ratio (Pan troglodytes [1]; 5 mg/kg): 0.17; Activity (Pan troglodytes [2]; 5 mg/kg): 268 uEq

SMILES,Ratio (Pan troglodytes [1]),Activity (Pan troglodytes [2]) [uEq],other results
CCC1C(=O)c2c(cc(OCC(=O)O)c(Cl)c2Cl)C1c1ccccc1 (stereo unspecified),0.28,223,
CCC1Cc2cc(OCc3nnn[nH]3)c(Cl)c(Cl)c2C1=O (stereo unspecified),0.11,28,
O=C(O)COc1cc2c(c(Cl)c1Cl)C(=O)C(C1CCCC1)C2 (stereo in doubt; 4p),,,Ratio (Pan troglodytes [1]; 5 mg/kg): 0.18; LD50 [3]: 222 mg/kg; Activity (Canis familiaris [4]): 20 uEq; Ratio (Rattus norvegicus): 1.8; Activity (Canis familiaris [5]): 37 uEq; Activity (Canis familiaris [6]): 5 uEq; Activity (Canis familiaris [7]): 2 mL; Activity (Pan troglodytes [2]; 5 mg/kg): 223 uEq
CCC1Cc2cc(OCC(=O)O)c(Cl)c(Cl)c2C1=O (stereo unspecified),0.09,427,LD50 [3]: 245 mg/kg; Ratio (Rattus norvegicus): 2.8
CC1(C)C(=O)c2c(cc(OCC(=O)O)c(Cl)c2Cl)C1c1ccccc1 (stereo unspecified),0.1,22,
"O=C(O)COc1cc2c(c(Cl)c1Cl)C(=O)C(C1CCCC1)C2 (single isomer, unassigned; (-))",,,Ratio (Pan troglodytes [1]; 5 mg/kg): 0.1; Activity (Pan troglodytes [2]; 5 mg/kg): 292 uEq
CC1(C)Cc2cc(OCC(=O)O)c(Cl)c(Cl)c2C1=O,0.04,535,LD50 [3]: 268 mg/kg; Ratio (Rattus norvegicus): 3.9
CCCCC1Cc2cc(OCC(=O)O)c(Cl)c(Cl)c2C1=O (stereo unspecified),0.11,126,
O=C(O)COc1cc2c(c(Cl)c1Cl)C(=O)C1CCCCC21 (stereo unspecified),0.2,85,
CC1C(=O)c2c(cc(OCC(=O)O)c(Cl)c2Cl)C1c1ccccc1 (stereo unspecified),0.12,64,
O=C(O)COc1cc2c(c(Cl)c1Cl)C(=O)C(CC1CCCC1)C2 (stereo unspecified),0.05,105,
NS(=O)(=O)c1cc(C(=O)O)c(NCc2ccco2)cc1Cl [FUROSEMIDE],-0.02,1035,Activity (Canis familiaris [8]): 141 uEq; Activity (Canis familiaris [9]): 3 mL; Activity (Canis familiaris [10]): 1081 uEq; Activity (Canis familiaris [11]): 960 uEq
O=C1c2c(cc(OCc3nnn[nH]3)c(Cl)c2Cl)CC12CCCC2,0.05,0,
CCC1C(=O)c2c(cc(OCC(=O)O)c(Cl)c2Cl)C1c1cccnc1 (stereo unspecified),0.07,25,
O=C(O)COc1cc2c(c(Cl)c1Cl)C(=O)C1(CCCC1)C2,0.11,624,Activity (Canis familiaris [4]): 330 uEq; Activity (Canis familiaris [5]): 47 uEq; Activity (Canis familiaris [6]): 254 uEq; Activity (Canis familiaris [7]): 5 mL
O=C1c2c(cc(OCc3nnn[nH]3)c(Cl)c2Cl)CC12CCCCC2,0.02,0,
O=C(O)COc1cc2c(c(Cl)c1Cl)C(=O)C(C1CCCCC1)C2 (stereo unspecified),0.21,310,
Cc1c(OCC(=O)O)cc2c(c1Cl)C(=O)C(C1CCCC1)C2 (stereo unspecified),0.14,141,
CC12CCCCC1c1cc(OCC(=O)O)c(Cl)c(Cl)c1C2=O (stereo unspecified),0.39,406,
C=CCC1(C)Cc2cc(OCC(=O)O)c(Cl)c(Cl)c2C1=O (stereo unspecified),0.01,81,Activity (Canis familiaris [4]): 175 uEq; Activity (Canis familiaris [5]): 37 uEq; Activity (Canis familiaris [6]): 171 uEq; Activity (Canis familiaris [7]): 4 mL
O=C1c2c(cc(OCc3nnn[nH]3)c(Cl)c2Cl)CC1C1CCCC1 (stereo unspecified),0.18,56,
CC1(C2CCCC2)Cc2cc(OCC(=O)O)c(Cl)c(Cl)c2C1=O (racemic),,,Ratio (Pan troglodytes [1]; 5 mg/kg): 0.2; LD50 [3]: 213 mg/kg; Activity (Canis familiaris [4]): 454 uEq; Ratio (Rattus norvegicus): 5.4; Activity (Canis familiaris [5]): 48 uEq; Activity (Canis familiaris [6]): 478 uEq; Activity (Canis familiaris [7]): 4 mL; Activity (Pan troglodytes [2]; 5 mg/kg): 425 uEq
CCC1(C2CCCC2)Cc2cc(OCC(=O)O)c(Cl)c(Cl)c2C1=O (stereo unspecified),0.12,231,
CCC1C(=O)c2c(cc(OCC(=O)O)c(Cl)c2Cl)C1c1ccccn1 (stereo unspecified),0.08,0,
CCC1(C)Cc2cc(OCC(=O)O)c(Cl)c(Cl)c2C1=O (stereo unspecified),0.07,520,LD50 [3]: 239 mg/kg; Activity (Canis familiaris [4]): 360 uEq; Ratio (Rattus norvegicus): 15; Activity (Canis familiaris [5]): 62 uEq; Activity (Canis familiaris [6]): 450 uEq; Activity (Canis familiaris [7]): 4 mL
